In US20180312473A1, “PHENAZINE DERIVATIVES AS ANTIMICROBIAL AGENTS” (priority 2015, published 2018):
Values after ≈ are worked out from the molar mass of the structure shown. Read-outs that look alike come from different tables or passages of the source.

Experiments:
[1] = tested on: MRSA-1 (methicillin-resistant Staphylococcus aureus clinical isolate); assay: MIC assay (broth microdilution, CLSI); assay type: cell-based; conditions: Staphylococcus aureus, MRSA, Table 11; read-out: MIC, MRSA-1
[2] = tested on: S. aureus clinical isolate SA 156; assay: MIC assay (broth microdilution, CLSI); conditions: Staphylococcus aureus, read-out: MIC, SA 156
[3] = tested on: Staphylococcus epidermidis (ATCC 35984), MRSE; assay: MIC assay (broth microdilution, CLSI); assay type: cell-based; conditions: Staphylococcus epidermidis
human red blood cells = assay: Hemolysis assay with red blood cells; conditions: 200 μM
How it was run: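 Washed human red blood cells exposed to compounds added from DMSO stocks, 1 h at 37° C.; supernatant OD read at 405 nm after centrifugation. % hemolysis calculated relative to DMSO (0%) and Triton X (100%) controls, from three independent experiments.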

[4] = tested on: Enterococcus faecium (ATCC 700221), VRE; assay: MIC assay (broth microdilution, CLSI); assay type: cell-based
[5] = tested on: S. aureus clinical isolate SA 138; assay: MIC assay (broth microdilution, CLSI); conditions: Staphylococcus aureus, read-out: MIC, SA 138
[6] = tested on: S. aureus clinical isolate SA 147; assay: MIC assay (broth microdilution, CLSI); conditions: Staphylococcus aureus, read-out: MIC, SA 147
[7] = tested on: MRSA-2 planktonic cells and biofilms; assay: Calgary Biofilm Device (CBD) assay, MBC/MBEC; assay type: cell-based, Staphylococcus aureus
[8] = tested on: MRSE (S. epidermidis ATCC 35984) planktonic cells and biofilms; assay: Calgary Biofilm Device (CBD) assay, MBC/MBEC; assay type: cell-based, Staphylococcus epidermidis; conditions: for MBC: Staphylococcus epidermidis, read-out: MRSE 35984 MBC
[9] = tested on: S. aureus clinical isolate SA 129; assay: MIC assay (broth microdilution, CLSI); conditions: Staphylococcus aureus, read-out: MIC, SA 129
[10] = tested on: Staphylococcus epidermidis (ATCC 12228); assay: MIC assay (broth microdilution, CLSI); assay type: cell-based; conditions: Staphylococcus epidermidis
MRSA BAA-1707 = assay: MIC assay (broth microdilution, CLSI); conditions: Staphylococcus aureus, read-out: MIC, MRSA BAA-1707
[11] = tested on: MRSA-2 (methicillin-resistant Staphylococcus aureus clinical isolate); assay: MIC assay (broth microdilution, CLSI); assay type: cell-based; conditions: Staphylococcus aureus, MRSA, Table 7; a midpoint of 2-fold range; b lowest concentration tested; read-out: MIC, MRSA-2
MRSA BAA-44 = assay: MIC assay (broth microdilution, CLSI); conditions: Staphylococcus aureus, read-out: MIC, MRSA BAA-44
in vitro = assay type: cell-based; conditions: human
[12] = tested on: MRSA BAA-1707 planktonic cells and biofilms; assay: Calgary Biofilm Device (CBD) assay, MBC/MBEC; conditions: Table 8
[13] = tested on: VRE (E. faecium ATCC 700221) planktonic cells and biofilms; assay: Calgary Biofilm Device (CBD) assay, MBC/MBEC; assay type: cell-based, Enterococcus faecium

## Oc1c(I)cc(I)c2nccnc12 [Compound 26]
[1]
  MIC: 1.56 µM (≈ 0.621 µg/mL)
[2]
  MIC: 3.13 µM (≈ 1.25 µg/mL)
[3]; Table 2A, read-out: MIC, Staphylococcus epidermidis (ATCC 35984)
  MIC: 3.13 µM (≈ 1.25 µg/mL)
[3]; Table 7, read-out: MIC, MRSE 35984
  MIC: 3.13 µM (≈ 1.25 µg/mL)
Human red blood cells; human, 1 h, pH 7.2
  % Hemolysis (200 μM): ≤1%
  % Hemolysis at 200 μM: ≤1%
[4]; Enterococcus faecium, Table 2A, read-out: MIC, Enterococcus faecium (ATCC 700221)
  MIC: 12.5 µM (≈ 4.97 µg/mL)
[4]; Table 7, b lowest concentration tested, read-out: MIC, VRE 700221
  MIC: 12.5 µM (≈ 4.97 µg/mL)
[5]
  MIC: 6.25 µM (≈ 2.49 µg/mL)
[6]
  MIC: 6.25 µM (≈ 2.49 µg/mL)
[7]; Staphylococcus aureus, MRSA, Table 4, read-out: MBC, MRSA-2
  MBC: > 2000 µM
[7]; Staphylococcus aureus, MRSA, Table 8, a/b 2-/4-fold range in independent experiments, read-out: MRSA-2 MBC
  MBC: > 2000 µM
[8]; Table 8
  MBC: 750 µM (≈ 298 µg/mL)
[9]
  MIC: 6.25 µM (≈ 2.49 µg/mL)
[10]; ATCC12228, Table 2A, read-out: MIC, Staphylococcus epidermidis (ATCC 12228)
  MIC: 6.25 µM (≈ 2.49 µg/mL)
[10]; ATCC12228, Table 7, b lowest concentration tested, read-out: MIC, S. epidermidis 12228
  MIC: 6.25 µM (≈ 2.49 µg/mL)
MRSA BAA-1707
  MIC: 1.56 µM (≈ 0.621 µg/mL)
[11]
  MIC: 3.13 µM (≈ 1.25 µg/mL)
MRSA BAA-44
  MIC: 1.56 µM (≈ 0.621 µg/mL)
In vitro
  IC50 at 24 h: > 100 µM

## CN[C@H](CC(C)C)C(=O)N[C@H]1C(=O)N[C@@H](CC(N)=O)C(=O)N[C@H]2C(=O)N[C@H]3C(=O)N[C@H](C(=O)N[C@H](C(=O)O)c4cc(O)cc(O)c4-c4cc3ccc4O)[C@H](O)c3ccc(c(Cl)c3)Oc3cc2cc(c3O[C@@H]2O[C@H](CO)[C@@H](O)[C@H](O)[C@H]2O[C@H]2C[C@](C)(N)[C@H](O)[C@H](C)O2)Oc2ccc(cc2Cl)[C@H]1O [Vancomycin, vancomycin, reference compound]
[12]
  MRSA BAA-1707 MBEC: > 2000 µM
Human red blood cells; 1 h, 37 °C
  % Hemolysis (200 μM): ≤1%
Human red blood cells; red blood cells
  % Hemolysis at 200 μM: <1%
Human red blood cells; Table 8, human red blood cells
  % Hemolysis at 200 μM: ≤1%
[4]; Enterococcus faecium, read-out: MIC, Enterococcus faecium (ATCC 700221)
  MIC: > 100 µM
[4]; Table 2B, b lowest concentration tested, read-out: MIC, Enterococcus faecium (ATCC 700221)
  MIC: >100 µM
[4]; read-out: MIC, VRE 700221
  MIC: > 100 µM
[5]
  MIC: 1.17 µM (≈ 1.7 µg/mL)
[6]
  MIC: 1.17 µM (≈ 1.7 µg/mL)
[13]; Enterococcus, read-out: VRE 700221 MBC
  MBC: > 200 µM
[13]; Table 5, c lowest concentration tested
  VRE MBEC: 150 µM
[7]; Staphylococcus aureus, MRSA, read-out: MBC, MRSA-2
  MBC: 5.9 µM (≈ 8.55 µg/mL)
[7]; Staphylococcus aureus, MRSA, read-out: MRSA-2 MBC
  MBC: 3 µM (≈ 4.35 µg/mL)
[7]; Table 8, a/b 2-/4-fold range in independent experiments, read-out: MRSA-2 MBC
  MBC: 3.0 µM (≈ 4.35 µg/mL)
[8]
  MBC: 3 µM (≈ 4.35 µg/mL)
[8]; Table 5
  MRSE MBEC: > 2,000 μM
[10]; ATCC12228, read-out: MIC, S. epidermidis 12228
  MIC: 1.17 µM (≈ 1.7 µg/mL)
[10]; ATCC12228, read-out: MIC, Staphylococcus epidermidis (ATCC 12228)
  MIC: 1.17 µM (≈ 1.7 µg/mL)
